Common to all, as to experiment: microscale thermophoresis, initial fluorescence analysis, RED-NHS labelled protein
Holding throughout (type): binding
What all share (settings): 50 mM phosphate pH 7, 0.05% Pluronic F-127

For one experiment, the target named is T1, CBM4-2 (M9) (termite gut metagenome, UniProt S0DFK9).
T1 construct: gene Pm25; isolated CBM4-2 domain, D332-D484 by primer name (domain 324-486), pET28a(+), E. coli Tuner(DE3), TALON-purified

In experiment [1] the target is T2, Pm25ΔCBMs (M6; M7 = Pm25ΔCBMs E546A) (termite gut metagenome, UniProt S0DFK9, E546A, form not given).
T2 construct: gene Pm25; Pm25 without its two inserted CBM4s (catalytic domain 66-151 and 514-753); synthetic gene, E. coli Tuner(DE3), TALON-purified
T2 sequence (S0DFK9 30-160 limits assumed, stated change not applied): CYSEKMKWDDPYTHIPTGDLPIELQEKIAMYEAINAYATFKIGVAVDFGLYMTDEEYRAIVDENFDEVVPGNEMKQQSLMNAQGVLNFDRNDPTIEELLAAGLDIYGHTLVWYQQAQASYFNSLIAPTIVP
T2 sequence (S0DFK9 487-776 E546A limits assumed): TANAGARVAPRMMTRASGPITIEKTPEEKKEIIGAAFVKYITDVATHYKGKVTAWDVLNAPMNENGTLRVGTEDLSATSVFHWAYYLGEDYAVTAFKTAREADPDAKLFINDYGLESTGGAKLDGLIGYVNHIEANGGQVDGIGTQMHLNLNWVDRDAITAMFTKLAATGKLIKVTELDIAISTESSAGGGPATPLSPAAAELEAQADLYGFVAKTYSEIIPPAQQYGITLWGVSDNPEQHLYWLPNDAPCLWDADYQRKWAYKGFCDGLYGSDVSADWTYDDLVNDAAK

The target of another experiment is T3, CBM4-1 (M8) (termite gut metagenome, UniProt S0DFK9).
T3 construct: gene Pm25; isolated CBM4-1 domain, L167-L320 by primer name (domain 161-321), pET28a(+), E. coli Tuner(DE3), TALON-purified
T3 sequence (S0DFK9 167-320 limits assumed): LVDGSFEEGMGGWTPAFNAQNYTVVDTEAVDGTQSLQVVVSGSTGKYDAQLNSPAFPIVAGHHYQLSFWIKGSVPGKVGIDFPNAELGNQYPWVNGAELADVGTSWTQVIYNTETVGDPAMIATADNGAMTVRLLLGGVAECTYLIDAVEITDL

By Kd is commonly meant a measure of binding affinity in units of concentration. A higher Kd goes with a looser complex.

T1 sequence (S0DFK9 332-484 limits assumed): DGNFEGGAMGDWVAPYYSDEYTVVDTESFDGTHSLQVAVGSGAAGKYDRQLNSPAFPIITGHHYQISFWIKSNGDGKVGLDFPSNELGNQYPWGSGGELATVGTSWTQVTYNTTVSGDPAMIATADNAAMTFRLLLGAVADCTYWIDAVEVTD

In the case of `OC1OC[C@@H](O[C@@H]2OC[C@@H](O[C@@H]3OC[C@@H](O[C@@H]4OC[C@@H](O[C@@H]5OC[C@@H](O[C@@H]6OC[C@@H](O)[C@H](O)[C@H]6O)[C@H](O)[C@H]5O)[C@H](O)[C@H]4O)[C@H](O)[C@H]3O)[C@H](O)[C@H]2O)[C@H](O)[C@H]1O` (stereo partly drawn) [X6, xylohexaose], the dissociation constant Kd on CBM4-2 (M9) was 1800 ± 100 µM; in experiment [1], 1500 ± 200 µM; at CBM4-1 (M8), 4700 ± 400 µM.

(Values after paper PMC7848910, “Multimodularity of a GH10 Xylanase Found in the Termite Gut Metagenome” (Applied and Environmental Microbiology, 2021).)
